# Measured values from patent publication US11781110B2, “Induction of corneal endothelial cells” (The Regents of the University of California, priority 2016, dated 2023).
# Assays:
# EFSCs = assay: Directed differentiation of eye field stem cells into ocular neural crest stem cells; type: cell-based, human; settings: 3 μM in NCSC induction medium; after a week of induction
# Protocol: Directed differentiation of eye field stem cells into ocular neural crest stem cells. […] The in vitro derivation of neural crest stem cells from PSCs has been previously described (Chambers et al., 2013; Lee et al., 2007). It was reasoned that, if EFSCs could be primed toward ocular neural crest lineage, the cells could serve as a direct and renewable source to generate CECs in culture. To direct EFSCs toward neural crest fate, EFSCs were seeded at low density, and neural crest lineage specification was initiated in NCSC induction medium supplemented with the presence of 3 μM CHIR 99021. […] Immunostaining also detected the expression of nuclear translocation of beta-catenin (FIG. 4C), an indication of increased WNT canonical signaling during neural crest formation.
# [1] = test system: rabbit corneal endothelium; assay: Rabbit corneal endothelium injury model; type: in vivo; settings: compared
# EFSC-derived NCSCs = assay: Differentiation of CECs from ocular neural crest stem cells; type: cell-based, human; settings: added to the differentiation medium
# Protocol: Differentiation of CECs from ocular neural crest stem cells. In order to test if CECs could be induced from the EFSC-derived NCSCs directly in vitro, NCSCs were seeded at low cell density on an FNC coated plate. […] They remained proliferative and formed a relatively homogenous monolayer of cells after a few passages (FIG. 5B). To further characterize the NCSC-derived CEC sheets, immunostaining for several typical CEC markers including tight junction protein 1 (TJP1/ZO-1), N-Cadherin, and Na+/K+ ATPase was performed (FIG. 5C).
# CEC = CEC migration, proliferation and wound healing with ROCK inhibitor; type: cell-based; settings: compared with Y-27632
# [2] = test system: corneal endothelial cells (CECs); settings: cited from earlier work
smiles,measurement,setting,value
Cc1c[nH]c(-c2cnc(NCCNc3ccc(C#N)cn3)nc2-c2ccc(Cl)cc2Cl)n1 [CHIR 99021],expression of NCSC surface marker HNK-1,EFSCs,majority of EFSCs start to express a typical NCSC surface marker HNK-1
Cc1cncc2cccc(S(=O)(=O)N3CCCNC[C@@H]3C)c12 [H-1125],wound healing effect,[1],better wound healing effect
same,effect on differentiation of CECs,EFSC-derived NCSCs,improve the differentiation of CECs
same,"effect on CEC migration, proliferation and wound healing",CEC,more significant stimulatory effect
C[C@@H](N)[C@H]1CC[C@H](C(=O)Nc2ccncc2)CC1 [Y-27632],apoptosis of CECs,[2],inhibition of apoptosis
same,proliferation of corneal endothelial cells (CECs),[2],increased proliferation
same,corneal endothelial wound healing,[2]; in vitro and in vivo,enhanced corneal endothelial wound healing
